The target of series [1] is T1, 5′ FLAG-tagged human ribokinase (Homo sapiens, UniProt Q9H477).
T1 construct: host or cells: 293T cells, transfected with pMSCV-IRES-YFP (pRBKS); captured with anti-FLAG M2 magnetic beads and eluted with FLAG peptide
Kind of series: Ribokinase assay (kinase reaction with isolated FLAG-tagged ribokinase). Type of series: biochemical. To be noted: 20 minutes at 37° C., 3 mM ATP. On the procedure: Human ribokinase plasmid was purchased from OriGene (NM_022128.1). A FLAG sequence was appended 5′ to the ribokinase sequence and the FLAG-tagged ribokinase was subcloned into the retroviral vector pMSCV-IRES-YFP (pRBKS). 293T cells were transfected with the pRBKS vector and Lipofectamine 2000 (Invitrogen) according to manufacturer's protocol. Cells were lysed in RIPA buffer (1% NP-40, 1% Sodium deoxycholate, 0.3% Sodium dodecyl sulfate, […], 1 mM EDTA, 50 mM Tris-HCl pH 6.8). Protein concentration was determined by the BCA Protein Assay Kit (Pierce), and FLAG-tagged ribokinase was captured from 1 mg of lysate with anti-FLAG M2 Magnetic Beads (Sigma) and eluted with 100 μL of FLAG peptide (Sigma), as per the manufacturer's protocol. Cells not transfected with RBKS were lysed as a control.
1 μL of FLAG-tagged ribokinase or control eluent was added to 50 mM Tris-HCl, pH 7.8, 3 mM ATP, 100 mM KCl, 10 mM MgCl2, 1× protease inhibitor cocktail (Roche), and 1 μCi [^3H]-Ribose (Moravek) or [^18F]-FDA in a 10 μL volume. […] In the case of [^3H]-ribose, the samples were dried, placed into scintillation vials, 3 mL of Bio-Safe NA (RPI Corp) was added to each vial, and the samples were measured on a scintillation counter. In the case of [^18F]-FDA, the samples were placed into scintillation vials and counted on a gamma counter. […]

Series [2] in a line: Positron emission tomography / computed tomography imaging of mice. Type of series: in vivo. The note with it: for tissues in which the probe selectively accumulates: mice, positron emission tomography. How it is done:
Positron Emission Tomography, Computed Tomography Imaging. 6-12-week old C57BL/6J female mice and 12-week old female B6.V-Lep^ob/J (Ob/Ob) mice were purchased from the Jackson Laboratory. Animals were anesthetized with 2% isofluorane and injected intravenous in the tail vein with 75-150 μCi of [^18F]-FDA. One hour post-injection, the mice were imaged for 10 minutes on a Siemens Inveon PET scanner and 10 minutes on a MicroCAT II CT system. […] Journal of Digital Imaging 17 (3), 205 (2004)).

The test system of series [3] is enzymes in the pentose phosphate pathway. In words: Enzymes that metabolize 2-fluoro-2-deoxyarabinose in vitro (FIG. 6). Type of series: in vitro ADME.
Series [4] deals with non-oxidative pentose phosphate pathway. In words: Mass spectrometry analysis of 2-fluoro-2-deoxyarabinose metabolites in mouse organs (MRM LC-MS). Type of series: in vivo. To be noted: mice. On the procedure:
Mice (8-12 weeks old) were treated with 25 μL of 500 mM 2-fluoro-2-deoxyarabinose. 1 hour later, the mice were sacrificed and the metabolites from distinct organs were extracted with 3× with 80% MeOH. Extracted metabolites were dried and analyzed by multiple reaction monitoring liquid chromatography-mass spectrometry (MRM LC-MS).

T1 sequence (Q9H477 whole entry): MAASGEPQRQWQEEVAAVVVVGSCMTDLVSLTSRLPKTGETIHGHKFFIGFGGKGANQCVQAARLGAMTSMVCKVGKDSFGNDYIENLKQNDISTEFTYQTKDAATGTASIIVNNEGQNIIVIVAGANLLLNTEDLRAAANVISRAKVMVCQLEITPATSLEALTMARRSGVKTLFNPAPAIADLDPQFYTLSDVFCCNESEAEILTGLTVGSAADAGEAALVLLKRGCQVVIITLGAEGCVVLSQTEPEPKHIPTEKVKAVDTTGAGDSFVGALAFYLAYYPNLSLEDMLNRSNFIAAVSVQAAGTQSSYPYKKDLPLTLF

For the molecule `OC[C@H]1O[C@@H](O)C([18F])C1O` (some centres unmarked) [[^18F]-FDA, [^18F]-2-fluoro-2-deoxyarabinose], in series [1], the “phosphorylation by isolated ribokinase” value is recorded as “phosphorylates”. In addition, the “localization of probe to the liver” value in series [2] (12 week old C57Bl/6 female (wild-type) mice, 1 hour, PET/CT) is on record as “localizing significantly to the liver”. The “tissues in which the probe selectively accumulates” value is “accumulates in organs with high levels of ribokinase” in series [2]; “murine liver, kidney and intestinal tissues” in series [2] (listed as 18F labelled 2-fluoro-2-deoxyarabinose). For the same molecule, in series [3], the “metabolism by enzymes in vitro” value is “enzymes in the pentose phosphate pathway metabolize”. In addition, the “metabolic pathway and metabolite in vivo” value in series [4] (in vivo) is listed as “metabolized in vivo by the non-oxidative pentose phosphate pathway to 4-fluoro-4-deoxysedoheptulose-7-phosphate”. Further, the “tissues that metabolize the probe” value in series [4] (metabolite studies) was “metabolized by tissues in addition to the liver, including the spleen, muscles, heart, blood, thyroid, and kidneys”.
Consider [^3H]-Ribose [reference compound], for which the “phosphorylation by isolated ribokinase” value in series [1] is reported as “phosphorylates”.

For the origin of these results see patent US9592309B2, “Positron emission tomography probe to monitor selected sugar metabolism in vivo” (The Regents of the University of California, priority 2012, dated 2017).
